pIC50: −log10 of the molar value.
Key:
[1] = Intrinsic clearance in human hepatocytes assessed per million cells; format: ADME, cell-based, Hepatocyte; conditions: read-out: CLH
[2] = target: T1, Interleukin-1 receptor-associated kinase 4 (Homo sapiens, UniProt Q9NWZ3); experiment: Inhibition of IRAK4 (unknown origin) in presence of 5 mM ATP by enzymatic assay
T1 sequence (Q9NWZ3 whole entry): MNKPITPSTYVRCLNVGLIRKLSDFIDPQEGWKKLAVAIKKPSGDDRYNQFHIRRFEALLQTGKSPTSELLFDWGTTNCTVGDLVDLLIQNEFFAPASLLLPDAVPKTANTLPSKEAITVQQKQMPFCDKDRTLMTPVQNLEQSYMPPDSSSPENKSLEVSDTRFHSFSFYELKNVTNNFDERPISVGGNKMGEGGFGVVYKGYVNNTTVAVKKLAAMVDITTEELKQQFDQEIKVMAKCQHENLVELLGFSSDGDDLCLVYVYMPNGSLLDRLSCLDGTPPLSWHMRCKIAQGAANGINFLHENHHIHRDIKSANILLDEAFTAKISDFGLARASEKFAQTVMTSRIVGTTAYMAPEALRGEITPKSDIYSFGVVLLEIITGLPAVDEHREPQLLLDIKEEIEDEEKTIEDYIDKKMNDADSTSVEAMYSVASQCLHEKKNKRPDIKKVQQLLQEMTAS

[3] = Oral bioavailability in rat at 1 mg/kg; format: ADME, organism-based; conditions: in vivo
[4] = Clearance in rat at 0.5 mg/kg, iv; format: ADME, organism-based; conditions: in vivo
[5] = Lipophilicity, logD of the compound at pH 7.4 by shake-flask assay; format: physicochemical; conditions: buffer
[6] = target: T1, Interleukin-1 receptor-associated kinase 4; experiment: Inhibition of IRAK4 (unknown origin) by cell based assay
[7] = Efflux ratio in human Caco2 cells; format: ADME, cell-based; conditions: Caco-2
[8] = Intrinsic clearance in rat hepatocytes assessed per million cells; format: ADME, cell-based, Hepatocyte; conditions: read-out: CLH
[9] = Intrinsic permeability in human Caco2 cells; format: ADME, cell-based; conditions: Caco-2

SMILES	hepatocyte CLint [1]	pIC50 [2]	bioavailability [3]	clearance [4]	logD [5]	pIC50 [6]	efflux ratio [7]	hepatocyte CLint [8]	Papp [9]
N#Cc1ccc2ncnc(N[C@H]3CC[C@H](N4CCOCC4)CC3)c2c1	< 1.2 µL/min/1e6 cells	7.34	29%	20 mL/min/kg	1.6	6.60	1.6	3.4 µL/min/1e6 cells	18 ×10⁻⁶ cm/s
COC(=O)N1CCN([C@H]2CC[C@H](Nc3nc(Nc4cnn(C)c4)nc4ccc(C(C)C#N)nc34)CC2)CC1 (stereo not given in full)		8.22			2.8	6.89		26 µL/min/1e6 cells	
Cn1cc(Nc2nc(N[C@H]3CC[C@H](N4CCOCC4)CC3)c3cc(C#N)ccc3n2)cn1	< 1 µL/min/1e6 cells	8.70	5%	31 mL/min/kg	2.6	7.23	94	18 µL/min/1e6 cells	
COC(=O)N1CCN([C@H]2CC[C@H](Nc3nc(Nc4cnn(C)c4)nc4ccc(C(C)(C)C#N)nc34)CC2)CC1		7.16			3	5.80		18 µL/min/1e6 cells	
CC(=O)N1CCN([C@H]2CC[C@H](Nc3ncnc4ccc(C#N)cc34)CC2)CC1	< 1 µL/min/1e6 cells	6.91		19 mL/min/kg	1.4	6.38	19	< 1 µL/min/1e6 cells	4.2 ×10⁻⁶ cm/s
COC(=O)N1CCN([C@H]2CC[C@H](Nc3nc(Nc4cnn(C)c4)nc4ccc(C)nc34)CC2)CC1	13 µL/min/1e6 cells	8.05			2.6	6.85	0.9	10 µL/min/1e6 cells	7.9 ×10⁻⁶ cm/s
CC(=O)N1CCN([C@H]2CC[C@H](Nc3nc(Nc4cnn(C)c4)nc4ccc(C#N)cc34)CC2)CC1	< 1 µL/min/1e6 cells	9.00		17 mL/min/kg	2.3	6.40	323	3.2 µL/min/1e6 cells	< 0.2 ×10⁻⁶ cm/s
COC(=O)N1CCN([C@H]2CC[C@H](Nc3ncnc4ccc(C)nc34)CC2)CC1	< 1 µL/min/1e6 cells	6.55			2	6.08	0.8	5.2 µL/min/1e6 cells	35 ×10⁻⁶ cm/s
COC(=O)N1CCN([C@H]2CC[C@H](Nc3ncnc4ccc(C)cc34)CC2)CC1	< 1 µL/min/1e6 cells	7.42			2.5	6.70	0.7	10 µL/min/1e6 cells	28 ×10⁻⁶ cm/s
COC(=O)N1CCN([C@H]2CC[C@H](Nc3nc(Nc4cnn(C)c4)nc4ccc(C#N)cc34)CC2)CC1	< 1 µL/min/1e6 cells	9.00	10%	11 mL/min/kg	3.2	7.47	46	5.4 µL/min/1e6 cells	3 ×10⁻⁶ cm/s
COC(=O)N1CCN([C@H]2CC[C@H](Nc3nc(Nc4cnn(C)c4)nc4ccc(C5(C#N)CC5)nc34)CC2)CC1	4 µL/min/1e6 cells	7.77			3.2	7.21		7.3 µL/min/1e6 cells	
COC(=O)N1CCN([C@H]2CC[C@H](Nc3nc(Nc4cnn(C)c4)nc4ccc(C#N)nc34)CC2)CC1		8.30			2.7	7.32		2.6 µL/min/1e6 cells	
